In patent publication US20250295629A1, “COMPOSITIONS AND METHODS FOR TREATING CANCERS OF THE CENTRAL NERVOUS SYSTEM (CNS), INCLUDING GLIOBLASTOMA AND CHEMORESISTANT CNS TUMORS, AND RELATED COMPOSITIONS AND METHODS FOR INHIBITING AND ELIMINATING CNS CANCER STEM CELLS” (priority 2022, published 2025):

Tests used:
[1] = test system: yH2AX in GLUC2 and KR158 cells; assay: yH2AX staining (DNA damage marker); format: cell-based, mouse; conditions: 48 hours
Method: For immunocytochemical analysis, GLUC2, KRl 58 and GBM43 cells were plated on glass coverslips overnight. Cells were treated with medium or lucanthone for 48 hours. The medium was aspirated and cells were fixed with 4% PFA for 10 minutes. Plates were then washed 3× with 0.3% TX-100 in PBS and wells were blocked with 3% normal goat serum/0.3% TX-100 in PBS for 1 hour. Cells were stained with primary antibodies overnight (LC3, Ki67, Nestin, Olig2, SOX2, CD133, p62, Cathepsin D, yH2AX). The primary antibody was removed, and cells were again washed 3× with 0.3% TX-100 in PBS after which time cells were incubated with fluorescent secondary antibodies for an hour at room temperature. Cells were then washed 3× with PBS, counterstained with DAPI and imaged under confocal microscopy. GSC were induced to adhere to glass slides by precoating glass slides with Geltrex for an hour.

[2] = test system: GLUC2 GSC intracranial gliomas; assay: Murine glioma model, luciferase imaging and tumor volume; format: in vivo, mouse
Method: Gliomas were established in 3-4 month old male and female mice as described previously (3, 4, 33). GLUC2 GSC were dissociated with accutase and counted. Mice were anesthetized with 20 mg/kg avertin, a midline incision was made in the scalp, the skin retracted and a small burr hole was drilled in the skull at the following stereotactic coordinates from bregma: −lmm anteroposterior and +2 mediolateral. l×10^5 GLUC2 GSC resuspended in PBS were injected over a period of 2 minutes at a depth of 3 mm. At the end of the injection, the needle was kept in the injection site for a further 3 minutes. After needle removal, the incision was sutured and mice were placed on a heating pad until they fully recovered from anesthesia. […] All animal procedures were approved by the Stony Brook University Institutional Animal Care and Use Committee.
GSC engraftment was visualized using the IVIS spectrum in vivo imaging system 7 days after inoculation and again on days 14 and 21. Briefly, mice were anesthetized using continuous isofluorane exposure. Their scalps were shaved. Mice were injected i.p. with 150 mg/kg D-Luciferin, carefully placed in the IVIS spectrum machine and imaged every 3-4 minutes for 40 minutes. Relative signal was quantified by technician blinded to experiment, and luminescence ratios of day 21 to day 7 were calculated to approximate disease progression throughout the course of treatment.
Lucanthone was solubilized in 10% DMSO, 40% HPCD in PBS. After confirming the presence of gliomas on day 7, mice were randomly divided to control and treatment groups, and treated with either saline or 50 mg/kg lucanthone i.p. every day from day 7 to day 20. On day 21, tumors were visualized by bioluminescent imaging, as above.
Mice were anesthetized with 20 mg/kg avertin and transcardially perfused with 30 ml PBS followed by 30 ml 4% PFA in PBS. Brains were removed and post-fixed in 4% PFA in PBS overnight. They were dehydrated for 48 hours in 30% w/v sucrose in PBS. Brains were then embedded in optimal cutting temperature compound (OCT, Tissue-Tek) and 20 μm coronal sections throughout the entire tumor were taken on a Leica cryostat (Nusslock, Germany) and collected on Superfrost plus microscope slides. To determine tumor volume, serial sections were taken from each animal and subjected to hematoxylin and eosin stain. Tumor volume was calculated as tumor area×20 μm thickness, x number of slides (34).

[3] = test system: GLUC2 cells selected for resistance to 500 uM temozolomide; assay: Murine glioma model with cells selected for temozolomide resistance; format: in vivo, mouse; conditions: approximately 3 weeks of lucanthone treatment
Method: Currently, there exist no therapies to extend patient survival after glioma recurrence. To that end, GLUC2 cells were treated with escalating doses of temozolomide for several months until cells rebounded from multiple doses of 500 uM temozolomide, a dose far exceeding what is clinically achievable (FIG. 24A). Cells were then implanted into the striatum of mice. After 7 days, mice with similar disease burden were stratified into control or lucanthone treatment groups (FIG. 24B). After approximately 3 weeks of lucanthone treatment, relative luminescent increases (correlative of disease burden) decreased by about 50% in the lucanthone treatment group (FIG. 24C). Representative images are shown before animal sacrifice (FIG. 24D). Tumor volume was also found to be reduced by 50% as a result of lucanthone treatment (FIG. 24E, FIG. 24F).

Question: Which results are given for `CCN(CC)CCNc1ccc(C)c2sc3ccccc3c(=O)c12` [lucanthone]?
Answer: yH2AX levels ([1]; lucanthone plus TMZ compared to TMZ alone, not statistically significant): slightly increased; yH2AX intensity ([1]; single agent): minimal effect and not; systemic toxicity ([2]; 50 mg/kg): lack of apparent systemic toxicity; weight loss throughout the course of treatment ([2]; 50 mg/kg i.p. every day): did not experience significant weight loss; mice with a two-fold increase in luminescence ([2]; day 14, 50 mg/kg i.p. every day from day 7): 1 of 8; increase in tumor luminescence compared to day 7 ([2]; day 21, 50 mg/kg i.p. every day): 10 fold; tumors smaller than those of saline-treated animals ([2]; histological analysis, 50 mg/kg i.p. every day): approximately 60%; decrease of relative luminescent increases [3]: about 50%; reduction of tumor volume [3]: 50%
